Experimental data: US11981658B2, “Substituted aminopyridine compounds as EGFR inhibitors” (YUHAN CORPORATION, priority 2021, dated 2024)
Read-outs that look alike come from different tables or passages of the source.

Key:
EGFR L858R/C797S = EGFR L858R/C797S (Homo sapiens, UniProt P00533, C797S/L858R); experiment: Biochemical EGFR kinase inhibition assay (Lance Ultra TR-FRET), double mutant L858R/C797S
Outline: (§1)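 Enzyme reactions lasted 1 hour at room temperature with test compounds between 0.003 and 10 μM, followed by 10 mM EDTA quench.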

EGFR Del19/T790M/C797S = EGFR Del19/T790M/C797S (Homo sapiens, UniProt P00533, C797S/DEL746-750/T790M); experiment: Biochemical EGFR kinase inhibition assay (Lance Ultra TR-FRET), triple mutant del19/T790M/C797S
Sequence of EGFR Del19/T790M/C797S (P00533 with tags, fused parts or gaps DEL746-750/T790M/C797S): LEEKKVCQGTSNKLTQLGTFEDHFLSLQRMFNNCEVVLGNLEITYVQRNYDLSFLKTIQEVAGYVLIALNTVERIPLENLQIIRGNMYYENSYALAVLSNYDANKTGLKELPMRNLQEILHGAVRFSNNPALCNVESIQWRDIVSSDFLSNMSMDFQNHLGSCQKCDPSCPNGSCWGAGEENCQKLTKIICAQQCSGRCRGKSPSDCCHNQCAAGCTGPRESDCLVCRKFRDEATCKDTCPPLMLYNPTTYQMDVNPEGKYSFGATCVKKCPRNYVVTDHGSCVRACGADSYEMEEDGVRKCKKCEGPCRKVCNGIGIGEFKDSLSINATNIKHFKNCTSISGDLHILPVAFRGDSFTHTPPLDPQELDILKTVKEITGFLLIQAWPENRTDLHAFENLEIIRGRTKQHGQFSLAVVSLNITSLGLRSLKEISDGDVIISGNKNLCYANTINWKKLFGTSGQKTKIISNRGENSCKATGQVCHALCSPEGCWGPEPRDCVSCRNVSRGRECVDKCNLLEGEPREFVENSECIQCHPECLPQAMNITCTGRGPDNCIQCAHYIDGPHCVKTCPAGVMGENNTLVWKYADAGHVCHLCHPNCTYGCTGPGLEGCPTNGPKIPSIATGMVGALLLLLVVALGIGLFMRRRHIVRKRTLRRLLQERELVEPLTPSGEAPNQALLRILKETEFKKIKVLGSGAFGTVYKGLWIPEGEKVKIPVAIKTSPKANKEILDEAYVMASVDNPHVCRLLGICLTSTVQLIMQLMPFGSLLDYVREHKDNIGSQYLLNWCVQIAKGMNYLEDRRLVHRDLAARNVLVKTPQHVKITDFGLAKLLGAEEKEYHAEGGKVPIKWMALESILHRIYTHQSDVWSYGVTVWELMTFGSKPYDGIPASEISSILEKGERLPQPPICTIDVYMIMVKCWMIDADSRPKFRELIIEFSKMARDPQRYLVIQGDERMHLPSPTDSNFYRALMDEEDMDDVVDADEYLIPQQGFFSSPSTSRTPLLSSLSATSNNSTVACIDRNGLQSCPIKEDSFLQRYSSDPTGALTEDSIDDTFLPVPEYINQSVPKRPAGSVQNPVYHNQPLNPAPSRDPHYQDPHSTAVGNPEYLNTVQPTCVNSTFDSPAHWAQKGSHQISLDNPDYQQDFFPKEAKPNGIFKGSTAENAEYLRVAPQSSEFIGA
Outline: as §1

EGFR wildtype (WT) = EGFR wildtype (WT) (Homo sapiens, UniProt P00533); experiment: Biochemical EGFR kinase inhibition assay (Lance Ultra TR-FRET), wildtype
Sequence of EGFR wildtype (WT) (P00533 25-1210): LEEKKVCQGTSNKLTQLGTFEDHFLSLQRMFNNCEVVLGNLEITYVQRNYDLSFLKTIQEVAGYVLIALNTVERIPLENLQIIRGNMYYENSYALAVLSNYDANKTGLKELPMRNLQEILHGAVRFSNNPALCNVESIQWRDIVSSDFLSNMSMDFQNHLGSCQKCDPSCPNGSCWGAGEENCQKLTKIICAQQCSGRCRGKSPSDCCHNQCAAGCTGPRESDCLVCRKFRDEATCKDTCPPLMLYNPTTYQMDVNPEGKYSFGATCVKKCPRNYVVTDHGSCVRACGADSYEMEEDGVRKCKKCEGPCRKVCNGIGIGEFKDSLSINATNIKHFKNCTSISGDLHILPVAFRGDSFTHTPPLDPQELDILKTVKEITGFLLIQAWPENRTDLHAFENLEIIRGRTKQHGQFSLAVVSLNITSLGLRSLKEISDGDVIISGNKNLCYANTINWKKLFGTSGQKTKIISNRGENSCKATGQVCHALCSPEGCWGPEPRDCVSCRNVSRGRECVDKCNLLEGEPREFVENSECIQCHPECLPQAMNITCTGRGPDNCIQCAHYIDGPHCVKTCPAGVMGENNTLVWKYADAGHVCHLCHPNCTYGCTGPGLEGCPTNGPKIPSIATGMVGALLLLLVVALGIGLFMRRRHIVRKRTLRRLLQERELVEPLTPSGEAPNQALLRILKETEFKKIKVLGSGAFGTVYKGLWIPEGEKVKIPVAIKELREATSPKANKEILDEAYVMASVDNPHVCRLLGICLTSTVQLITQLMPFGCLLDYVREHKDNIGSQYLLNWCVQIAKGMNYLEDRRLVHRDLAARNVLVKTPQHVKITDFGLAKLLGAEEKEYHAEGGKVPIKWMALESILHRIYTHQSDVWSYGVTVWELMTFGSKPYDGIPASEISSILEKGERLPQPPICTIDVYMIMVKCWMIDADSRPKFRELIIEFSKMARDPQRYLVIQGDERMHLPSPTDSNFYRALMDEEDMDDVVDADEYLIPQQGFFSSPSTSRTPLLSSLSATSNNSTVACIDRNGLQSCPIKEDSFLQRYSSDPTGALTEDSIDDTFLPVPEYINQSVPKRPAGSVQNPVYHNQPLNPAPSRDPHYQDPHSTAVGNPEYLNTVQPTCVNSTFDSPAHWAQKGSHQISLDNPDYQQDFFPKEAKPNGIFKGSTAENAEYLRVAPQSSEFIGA
Outline: as §1

EGFR Del19/C797S = EGFR Del19/C797S (Homo sapiens, UniProt P00533, C797S/DEL746-750); experiment: Biochemical EGFR kinase inhibition assay (Lance Ultra TR-FRET), double mutant del19/C797S
Sequence of EGFR Del19/C797S (P00533 with tags, fused parts or gaps DEL746-750/C797S): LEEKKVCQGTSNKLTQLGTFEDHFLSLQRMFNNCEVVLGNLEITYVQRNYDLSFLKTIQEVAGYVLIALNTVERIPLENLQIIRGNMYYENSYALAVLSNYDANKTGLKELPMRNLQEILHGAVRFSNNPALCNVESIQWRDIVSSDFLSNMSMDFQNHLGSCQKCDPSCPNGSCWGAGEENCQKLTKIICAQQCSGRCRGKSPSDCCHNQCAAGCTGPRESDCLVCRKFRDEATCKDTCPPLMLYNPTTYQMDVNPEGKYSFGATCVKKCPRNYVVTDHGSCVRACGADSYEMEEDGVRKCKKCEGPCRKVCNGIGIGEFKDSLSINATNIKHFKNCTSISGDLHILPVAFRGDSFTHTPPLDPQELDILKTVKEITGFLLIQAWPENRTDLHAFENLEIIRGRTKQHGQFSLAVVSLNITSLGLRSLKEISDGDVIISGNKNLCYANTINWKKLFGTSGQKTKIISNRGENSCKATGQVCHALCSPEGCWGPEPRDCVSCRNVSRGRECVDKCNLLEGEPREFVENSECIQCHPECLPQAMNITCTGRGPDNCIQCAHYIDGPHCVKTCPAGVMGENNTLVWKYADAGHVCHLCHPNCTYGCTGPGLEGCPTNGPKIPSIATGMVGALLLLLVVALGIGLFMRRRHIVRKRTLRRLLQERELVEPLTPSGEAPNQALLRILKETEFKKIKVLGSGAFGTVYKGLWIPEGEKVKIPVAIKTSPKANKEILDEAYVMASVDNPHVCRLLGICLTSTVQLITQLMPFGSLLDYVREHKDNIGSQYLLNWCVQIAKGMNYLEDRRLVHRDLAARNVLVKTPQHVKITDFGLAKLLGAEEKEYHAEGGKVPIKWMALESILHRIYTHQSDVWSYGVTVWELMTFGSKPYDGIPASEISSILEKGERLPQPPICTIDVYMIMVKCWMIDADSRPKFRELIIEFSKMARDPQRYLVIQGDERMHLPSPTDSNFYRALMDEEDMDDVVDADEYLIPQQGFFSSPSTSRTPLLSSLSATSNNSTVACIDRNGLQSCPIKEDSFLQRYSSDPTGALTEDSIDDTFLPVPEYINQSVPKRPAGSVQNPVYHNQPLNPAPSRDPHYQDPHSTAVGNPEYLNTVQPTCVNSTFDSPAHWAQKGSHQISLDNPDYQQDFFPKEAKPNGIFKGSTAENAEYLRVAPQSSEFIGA
Outline: as §1

EGFR L858R/T790M/C797S = EGFR L858R/T790M/C797S (Homo sapiens, UniProt P00533, C797S/L858R/T790M); experiment: Biochemical EGFR kinase inhibition assay (Lance Ultra TR-FRET), triple mutant L858R/T790M/C797S
Sequence of EGFR L858R/T790M/C797S (P00533 25-1210 T790M/C797S/L858R): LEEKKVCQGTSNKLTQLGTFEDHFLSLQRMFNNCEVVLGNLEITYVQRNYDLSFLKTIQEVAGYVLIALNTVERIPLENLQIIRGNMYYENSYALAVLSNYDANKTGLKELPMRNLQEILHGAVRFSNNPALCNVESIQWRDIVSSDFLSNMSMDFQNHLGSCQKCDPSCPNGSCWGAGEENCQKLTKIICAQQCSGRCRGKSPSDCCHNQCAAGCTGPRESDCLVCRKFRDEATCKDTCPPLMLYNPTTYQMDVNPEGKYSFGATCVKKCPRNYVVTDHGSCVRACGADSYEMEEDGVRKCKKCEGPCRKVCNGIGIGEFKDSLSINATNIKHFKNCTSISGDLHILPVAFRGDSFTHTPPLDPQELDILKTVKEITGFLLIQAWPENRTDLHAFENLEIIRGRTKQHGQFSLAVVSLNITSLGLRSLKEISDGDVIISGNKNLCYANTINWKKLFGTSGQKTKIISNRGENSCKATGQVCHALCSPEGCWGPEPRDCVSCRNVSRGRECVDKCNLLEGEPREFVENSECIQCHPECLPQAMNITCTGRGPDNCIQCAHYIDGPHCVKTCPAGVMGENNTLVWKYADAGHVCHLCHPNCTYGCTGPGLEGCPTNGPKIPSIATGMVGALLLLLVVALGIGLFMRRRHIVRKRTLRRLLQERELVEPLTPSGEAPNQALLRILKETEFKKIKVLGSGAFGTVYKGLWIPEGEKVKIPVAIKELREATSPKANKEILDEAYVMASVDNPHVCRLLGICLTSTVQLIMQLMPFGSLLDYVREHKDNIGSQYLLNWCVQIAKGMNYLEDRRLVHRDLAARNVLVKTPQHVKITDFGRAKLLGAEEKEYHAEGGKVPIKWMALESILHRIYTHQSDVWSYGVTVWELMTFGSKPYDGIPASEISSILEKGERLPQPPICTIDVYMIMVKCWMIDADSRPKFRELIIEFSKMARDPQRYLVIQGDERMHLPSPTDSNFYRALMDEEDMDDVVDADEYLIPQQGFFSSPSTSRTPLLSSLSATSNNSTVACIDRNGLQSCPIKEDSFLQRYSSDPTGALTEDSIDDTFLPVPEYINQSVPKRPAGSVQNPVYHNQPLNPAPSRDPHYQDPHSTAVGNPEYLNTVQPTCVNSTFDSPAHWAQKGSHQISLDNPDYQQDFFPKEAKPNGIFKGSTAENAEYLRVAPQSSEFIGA
Outline: as §1

[1] = IC50 L858R/C797S (nM), 100 μM ATP
[2] = Km ATP, read-out: IC50 L858R/C797S (nM), Km ATP
[3] = IC50 Del19/T790M/C797S (nM), 100 μM ATP
[4] = Km ATP, read-out: IC50 WT (nM), Km ATP
[5] = IC50 Del19/C797S (nM), 100 μM ATP
[6] = Km ATP, read-out: IC50 Del19/C797S (nM), Km ATP
[7] = IC50 L858R/T790M/C797S (nM), 100 μM ATP
[8] = Km ATP, read-out: IC50 L858R/C797S (nM) Km ATP
[9] = Km ATP, read-out: IC50 Del19/T790M/C797S (nM) Km ATP
[10] = Km ATP, read-out: IC50 WT (nM) Km ATP
[11] = Km ATP, read-out: IC50 Del19/C797S (nM) Km ATP
[12] = Km ATP, read-out: IC50 L858R/T790M/C797S (nM) Km ATP
[13] = Km ATP, read-out: IC50 Del19/T790M/C797S (nM), Km ATP
[14] = Km ATP, read-out: IC50 L858R/T790M/C797S (nM), Km ATP

Compound | IC50 (EGFR L858R/C797S; [1]) | IC50 (EGFR L858R/C797S; [2]) | IC50 (EGFR Del19/T790M/C797S; [3]) | IC50 (EGFR wildtype (WT); IC50 WT (nM), 100 μM ATP) | IC50 (EGFR wildtype (WT); [4]) | IC50 (EGFR Del19/C797S; [5]) | IC50 (EGFR Del19/C797S; [6]) | IC50 (EGFR L858R/T790M/C797S; [7]) | IC50 (EGFR L858R/C797S; ATP at Km, read-out: IC50 L858R/C797S (nM), Km ATP) | IC50 (EGFR Del19/T790M/C797S; ATP at Km, read-out: IC50 Del19/T790M/C797S (nM), Km ATP) | IC50 (EGFR wildtype (WT); ATP at Km, read-out: IC50 WT (nM), Km ATP) | IC50 (EGFR Del19/C797S; ATP at Km, read-out: IC50 Del19/C797S (nM), Km ATP) | IC50 (EGFR L858R/T790M/C797S; ATP at Km, read-out: IC50 L858R/T790M/C797S (nM), Km ATP) | IC50 (EGFR L858R/C797S; [8]) | IC50 (EGFR Del19/T790M/C797S; [9]) | IC50 (EGFR wildtype (WT); [10]) | IC50 (EGFR Del19/C797S; [11]) | IC50 (EGFR L858R/T790M/C797S; [12]) | IC50 (EGFR Del19/T790M/C797S; [13]) | IC50 (EGFR L858R/T790M/C797S; [14])
CN(C)CC1(C)CCN(c2cc(Nc3ccnc(-c4cnn(S(=O)(=O)C5CC5)c4)n3)ncc2C#CC2(C)CC2)CC1 [Example 406, 2-(1-(Cyclopropylsulfonyl)-1H-pyrazol-4-yl)-N-(4-(4-((dimethylamino)methyl)-4-methylpiperidin-1-yl)-5-((1-methylcyclopropyl)ethynyl)pyridin-2-yl)pyrimidin-4-amine] | 58.2 nM | 2.7 nM | 0.9 nM | > 10000 nM | 35.2 nM | 4.3 nM | 3.3 nM | 1.3 nM |  |  |  |  |  |  |  |  |  |  |  | 
CN(C)Cc1ccc(C#Cc2cnc(Nc3ccnc(-c4cnn(S(=O)(=O)C5CC5)c4)n3)cc2N2CCC(C)(CO)CC2)cn1 [Example 278, (1-(2-((2-(1-(Cyclopropylsulfonyl)-1H-pyrazol-4-yl)pyrimidin-4-yl)amino)-5-((6-((dimethylamino)methyl)pyridin-3-yl)ethynyl)pyridin-4-yl)-4-methylpiperidin-4-yl)methanol] | 0.5 nM |  | 0.6 nM | 108 nM |  | 0.6 nM |  | 0.3 nM | 0.5 nM | 0.3 nM | 0.7 nM | 0.2 nM | 0.1 nM |  |  |  |  |  |  | 
O=S(=O)(C1CC1)n1cc(-c2nccc(Nc3cc(N[C@H]4CC[C@@H](O)CC4)c(C#Cc4cnn(CCF)c4)cn3)n2)cn1 [Example 42, (1s,4s)-4-((2-((2-(1-(Cyclopropylsulfonyl)-1H-pyrazol-4-yl)pyrimidin-4-yl)amino)-5-((1-(2-fluoroethyl)-1H-pyrazol-4-yl)ethynyl)pyridin-4-yl)amino)cyclohexan-1-ol] | 11.5 nM |  | 1.1 nM | > 10000 nM |  | 3.2 nM |  | 1.2 nM |  |  |  |  |  |  |  |  |  |  |  | 
CC(C)Nc1cc(Nc2ccnc(-c3cnn(S(=O)(=O)C4CC4)c3)n2)ncc1C#Cc1cnn(CC(F)F)c1 [Example 23, N^2-(2-(1-(Cyclopropylsulfonyl)-1H-pyrazol-4-yl)pyrimidin-4-yl)-5-((1-(2,2-difluoroethyl)-1H-pyrazol-4-yl)ethynyl)-N^4-isopropylpyridine-2,4-diamine] |  |  |  |  |  |  |  |  |  |  |  |  |  | 92.5 nM | 1.6 nM | 907 nM | 77.7 nM | 7.1 nM |  | 
O=S(=O)(C1CC1)N1CCC(C#Cc2cnc(Nc3ccnc(-c4cnn(S(=O)(=O)C5CC5)c4)n3)cc2N[C@H]2CC[C@@H](CO)CC2)CC1 [Example 390, ((1s,4s)-4-((2-((2-(1-(Cyclopropylsulfonyl)-1H-pyrazol-4-yl)pyrimidin-4-yl)amino)-5-((1-(cyclopropylsulfonyl)piperidin-4-yl)ethynyl)pyridin-4-yl)amino)cyclohexyl)methanol] | 192 nM | 30.1 nM | 5.3 nM | > 10000 nM | 47.7 nM | 11.6 nM | 7.3 nM | 8.3 nM |  |  |  |  |  |  |  |  |  |  | 2.5 nM | 1.1 nM
Cn1cc(C#Cc2cnc(Nc3ccnc(-c4cnn(S(=O)(=O)C5CC5)c4)n3)cc2N2CCC(CCO)CC2)c(C(F)(F)F)n1 [Example 91, 2-(1-(2-((2-(1-(Cyclopropylsulfonyl)-1H-pyrazol-4-yl)pyrimidin-4-yl)amino)-5-((1-methyl-3-(trifluoromethyl)-1H-pyrazol-4-yl)ethynyl)pyridin-4-yl)piperidin-4-yl)ethan-1-ol] | 166 nM |  | 5.6 nM | > 10000 nM |  | 76.8 nM |  | 13.9 nM |  |  |  |  |  |  |  |  |  |  |  | 
Cn1cc(C#Cc2cnc(Nc3ccnc(-c4cnn(S(=O)(=O)C5CC5)c4)n3)cc2N2CCC(F)(CNCCF)CC2)cn1 [Example 383, 2-(1-(Cyclopropylsulfonyl)-1H-pyrazol-4-yl)-N-(4-(4-fluoro-4-(((2-fluoroethyl)amino)methyl)piperidin-1-yl)-5-((1-methyl-1H-pyrazol-4-yl)ethynyl)pyridin-2-yl)pyrimidin-4-amine] | 86.8 nM | 14.5 nM | 1.2 nM | > 10000 nM | 40.8 nM | 8.2 nM | 3.7 nM | 1.2 nM |  |  |  |  |  |  |  |  |  |  | 1 nM | 0.6 nM
CN(C)CCNC1CCN(c2cc(Nc3ccnc(-c4cnn(S(=O)(=O)C5CC5)c4)n3)ncc2C#Cc2cnn(C3CCOCC3)c2)CC1 [Example 138, N^1-(1-(2-((2-(1-(Cyclopropylsulfonyl)-1H-pyrazol-4-yl)pyrimidin-4-yl)amino)-5-((1-(tetrahydro-2H-pyran-4-yl)-1H-pyrazol-4-yl)ethynyl)pyridin-4-yl)piperidin-4-yl)-N^2,N^2-dimethylethane-1,2-diamine] | 8.7 nM |  | 0.3 nM | 2940 nM |  | 1.3 nM |  | 0.4 nM |  |  |  |  |  | 0.9 nM | 0.3 nM | 7.8 nM | 1 nM | 0.1 nM |  | 
Cn1cc(C#Cc2cnc(Nc3ccnc(-c4cnn(S(=O)(=O)C5CC5)c4)n3)cc2N2CCC(O)CC2)cn1 [Example 27, 1-(2-((2-(1-(Cyclopropylsulfonyl)-1H-pyrazol-4-yl)pyrimidin-4-yl)amino)-5-((1-methyl-1H-pyrazol-4-yl)ethynyl)pyridin-4-yl)piperidin-4-ol] | 27.8 nM |  | 0.6 nM | > 10000 nM |  | 4.1 nM |  | 1.5 nM |  |  |  |  |  | 3.6 nM | 0.6 nM | 22 nM | 4 nM |  |  | 
O=S(=O)(C1CC1)n1cc(-c2nccc(Nc3cc(N4CCC(CO)C4)c(C#Cc4cnn(CCF)c4)cn3)n2)cn1 (stereo not shown) [Example 34, (1-(2-((2-(1-(Cyclopropylsulfonyl)-1H-pyrazol-4-yl)pyrimidin-4-yl)amino)-5-((1-(2-fluoroethyl)-1H-pyrazol-4-yl)ethynyl)pyridin-4-yl)pyrrolidin-3-yl)methanol] | 236 nM |  | 1.8 nM | > 10000 nM |  | 11.5 nM |  | 6.8 nM |  |  |  |  |  |  | 2.1 nM | 27.9 nM |  |  |  | 
CS(=O)(=O)N1CCC(C#Cc2cnc(Nc3ccnc(-c4cnn(S(=O)(=O)C5CC5)c4)n3)cc2NC2CCC(O)CC2)C1 (stereo not shown) [Example 399, (1s,4s)-4-((2-((2-(1-(Cyclopropylsulfonyl)-1H-pyrazol-4-yl)pyrimidin-4-yl)amino)-5-((1-(methylsulfonyl)pyrrolidin-3-yl)ethynyl)pyridin-4-yl)amino)cyclohexan-1-ol] | 28.2 nM | 1.6 nM | 5.7 nM | > 10000 nM | 10.2 nM | 1.4 nM | 0.6 nM | 1.2 nM |  |  |  |  |  |  |  |  |  |  | 1.3 nM | 0.8 nM
Cn1cc(C#Cc2cnc(Nc3ccnc(-c4cnn(S(=O)(=O)C5CC5)c4)n3)cc2N2CCC(=O)CC2)cn1 [Example 7, 1-(2-((2-(1-(Cyclopropylsulfonyl)-1H-pyrazol-4-yl)pyrimidin-4-yl)amino)-5-((1-methyl-1H-pyrazol-4-yl)ethynyl)pyridin-4-yl)piperidin-4-one] | 143 nM |  | 4.5 nM | > 10000 nM |  | 24.2 nM |  | 5 nM |  |  |  |  |  |  |  |  |  |  |  | 
